The supplement of paper PMC10331698
± gives the standard deviation of the averaged measurements.

Key:
Experiment in all cases: level (log10 ratio to DMSO vehicle control); higher = higher biomarker level / cell amount than vehicle control
Conditions in all cases: in DMSO
[1] = compound: C=CC(=O)OCC(F)(F)C(F)(F)C(F)(F)C(F)(F)C(F)(F)C(F)(F)C(F)(F)F [1H,1H-Perfluorooctyl acrylate]
Method: (§1)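 BioMAP Diversity Plus panel of 12 human primary cell co-culture systems (3C, 4H, LPS, SAg, BT, BF4T, BE3C, CASM3C, HDF3CGF, KF3CT, MyoF, Mphg). Compounds were added 1 h before stimulation and left for 24 h (MyoF 48 h; BT 72 h for soluble read-outs or 6 d for IgG). Biomarkers were read by ELISA, cytotoxicity by SRB, PBMC viability and proliferation by Alamar Blue. Each well value was divided by the mean of 8 DMSO control wells on the same plate and log10 transformed; duplicate blinded samples were tested at 4 concentrations.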

[2] = compound: COC(=O)CCC(F)(F)C(F)(F)C(F)(F)C(F)(F)F [Methyl 2H,2H,3H,3H-perfluoroheptanoate]
Method: as §1

Perfluoro-1-iodohexane = compound: FC(F)(F)C(F)(F)C(F)(F)C(F)(F)C(F)(F)C(F)(F)I [Perfluoro-1-iodohexane]
Method: as §1

[3] = compound: O=C(O)C(F)(F)C(F)(F)C(F)(F)OC(F)(C(F)(F)F)C(F)(F)F [Perfluoro-4-isopropoxybutanoic acid]
Method: as §1

[4] = compound: NCC(F)(F)C(F)(F)C(F)(F)C(F)(F)C(F)(F)C(F)(F)C(F)(F)F [1H,1H-Perfluorooctylamine]
Method: as §1

[5] = compound: CCN(CCO)S(=O)(=O)C(F)(F)C(F)(F)C(F)(F)C(F)(F)C(F)(F)C(F)(F)C(F)(F)C(F)(F)F [N-Ethyl-N-(2-hydroxyethyl)perfluorooctanesulfonamide]
Method: as §1

[6] = compound: OCC(F)(F)OC(F)(F)C(F)(F)OC(F)(F)CO [1H,1H,8H,8H-Perfluoro-3,6-dioxaoctane-1,8-diol]
Method: as §1

Test System	level (log10) ([1]; 6700 nM)	level (log10) ([1]; 20000 nM)	level (log10) ([1]; 60000 nM)	level (log10) ([2]; 6700 nM)	level (log10) ([2]; 20000 nM)	level (log10) ([2]; 60000 nM)	level (log10) (Perfluoro-1-iodohexane; 6700 nM)	level (log10) (Perfluoro-1-iodohexane; 20000 nM)	level (log10) (Perfluoro-1-iodohexane; 60000 nM)	level (log10) ([3]; 6700 nM)	level (log10) ([3]; 20000 nM)	level (log10) ([3]; 60000 nM)	level (log10) ([4]; 6700 nM)	level (log10) ([4]; 20000 nM)	level (log10) ([4]; 60000 nM)	level (log10) ([5]; 6700 nM)	level (log10) ([5]; 20000 nM)	level (log10) ([6]; 6700 nM)	level (log10) ([6]; 20000 nM)	level (log10) ([6]; 60000 nM)
SAg:CD38	-0.016 ± 0.018	-0.009 ± 0.016	-0.02 ± 0.014	-0.018 ± 0.017	-0.0015 ± 0.018	-0.009 ± 0.0028	-0.059 ± 0.15	-0.01 ± 0.02	0.0005 ± 0.076	-0.003 ± 0.014	-0.0015 ± 0.0035	-0.017 ± 0.014	0.0005 ± 0.012	-0.0155 ± 0.00071	0.0065 ± 0.005	-0.027 ± 0.017	-0.0955 ± 0.012	-0.006 ± 0.02	-0.0105 ± 0.013	-0.0015 ± 0.0021
3C:HLA-DR	0.0085 ± 0.0092	0.0155 ± 0.0035	0.0205 ± 0.019	-0.026 ± 0.0071	0.03 ± 0.027	0.0085 ± 0.032	0.0025 ± 0.0035	-0.011 ± 0.0057	-0.001 ± 0.017	0.0145 ± 0.044	-0.0035 ± 0.005	0.002 ± 0.016	0.004 ± 0.047	0.023 ± 0.057	0.023 ± 0.041	0.013 ± 0.025	-0.0625 ± 0.016	-0.0185 ± 0.012	-0.0095 ± 0.016	0.0005 ± 0.036
BE3C:CD54/ICAM-1	0.0055 ± 0.042	-0.011 ± 0.014	0.003 ± 0.014	-0.0075 ± 0.0092	0.0105 ± 0.018	0.002 ± 0.011	-0.006 ± 0.0014	-0.0125 ± 0.015	-0.005 ± 0.014	-0.0095 ± 0.022	-0.014 ± 0.024	-0.0245 ± 0.005	0.009 ± 0.0099	-0.0045 ± 0.012	0.017 ± 0.034	0.0705 ± 0.033	0.0555 ± 0.013	0.0195 ± 0.013	0.0045 ± 0.015	0.0055 ± 0.022
SAg:CXCL8/IL-8	-0.0135 ± 0.053	0.001 ± 0.052	0.003 ± 0.024	-0.007 ± 0.05	-0.0085 ± 0.026	0.0165 ± 0.033	0.0365 ± 0.016	-0.004 ± 0.0071	0.002 ± 0.059	0.009 ± 0.037	0.02 ± 0.02	0.071 ± 0.023	0.058 ± 0.076	-0.0255 ± 0.011	0.0065 ± 0.061	0.0095 ± 0.025	-0.167 ± 0.03	0.0115 ± 0.022	-0.005	0.014 ± 0.044
BE3C:CXCL10/IP-10	0.0315 ± 0.015	0.0195 ± 0.005	0.0235 ± 0.023	-0.001 ± 0.013	-0.004 ± 0.0057	-0.006 ± 0.0099	0.013 ± 0.018	0.0135 ± 0.0078	0.0355 ± 0.022	0.003 ± 0.0014	0.0135 ± 0.00071	0.0155 ± 0.015	0.004 ± 0.0014	-0.0025 ± 0.0035	0.002 ± 0.0085	-0.051 ± 0.0028	-0.141 ± 0.028	0.004 ± 0.02	0.01 ± 0.0071	0.0105 ± 0.016
3C:SRB	-0.002 ± 0.0099	0.0145 ± 0.011	0.015	0.0125 ± 0.036	0.0085 ± 0.028	-0.004 ± 0.016	-0.0035 ± 0.00071	-0.0155 ± 0.00071	-0.0155 ± 0.0021	0.0005 ± 0.011	-0.0075 ± 0.015	-0.017 ± 0.024	0.0005 ± 0.0035	0.002 ± 0.0071	0.0045 ± 0.046	-0.0815 ± 0.021	-0.217 ± 0.011	-0.01 ± 0.0085	-0.0105 ± 0.0021	-0.0255 ± 0.0021
LPS:SRB	-0.006 ± 0.0028	-0.0095 ± 0.0078	-0.012 ± 0.016	0.006 ± 0.023	0.001 ± 0.011	-0.0045 ± 0.011	-0.0025 ± 0.0064	-0.0055 ± 0.0064	-0.0085 ± 0.00071	0.0075 ± 0.015	0.018 ± 0.0099	0.0215 ± 0.016	-0.0005 ± 0.0035	-0.0025 ± 0.0092	0.006 ± 0.037	-0.0345 ± 0.0035	-0.084 ± 0.02	-0.0075 ± 0.012	-0.0125 ± 0.0092	-0.0205 ± 0.005
BT:B cell Proliferation	-0.0405 ± 0.05	-0.0195 ± 0.056	-0.052 ± 0.048	-0.022 ± 0.023	-0.019 ± 0.047	-0.001 ± 0.05	-0.011 ± 0.054	-0.008 ± 0.011	-0.0135 ± 0.025	-0.002 ± 0.0071	0.0275 ± 0.0092	0.065 ± 0.016	0.0105 ± 0.025	0.0195 ± 0.016	0.039 ± 0.023	0.0165 ± 0.005	-0.0405 ± 0.059	-0.011 ± 0.0071	0 ± 0.0014	-0.0145 ± 0.0078
LPS:sPGE2	-0.045 ± 0.017	-0.0805 ± 0.0035	-0.109 ± 0.027	0.014 ± 0.033	0.0395 ± 0.0078	-0.0125 ± 0.04	0.0235 ± 0.0092	0.0015 ± 0.00071	-0.038 ± 0.018	-0.0145 ± 0.043	-0.0585 ± 0.022	-0.0615 ± 0.023	-0.076 ± 0.025	-0.059 ± 0.031	-0.036 ± 0.013	-0.023 ± 0.023	0.07 ± 0.0042	-0.0235 ± 0.019	-0.023 ± 0.045	-0.0195 ± 0.00071
BE3C:CXCL8/IL-8	0.0375 ± 0.012	0.066	0.071 ± 0.042	0.032 ± 0.044	0.002 ± 0.057	0.0295 ± 0.053	0.011 ± 0.033	0.021 ± 0.028	0.052 ± 0.033	0.0175 ± 0.025	0.0185 ± 0.019	0.015 ± 0.038	-0.017 ± 0.023	-0.0075 ± 0.025	-0.005 ± 0.013	-0.0825 ± 0.013	-0.218 ± 0.056	0.0075 ± 0.005	0.001 ± 0.041	-0.012 ± 0.045
SAg:SRB	-0.0005 ± 0.0035	-0.002 ± 0.0028	0.0075 ± 0.0021	0.008 ± 0.027	0.0005 ± 0.0064	-0.0085 ± 0.0092	-0.0075 ± 0.011	-0.002 ± 0.0014	-0.0045 ± 0.011	-0.001 ± 0.018	-0.0085 ± 0.016	-0.018 ± 0.0085	0.0005 ± 0.0035	-0.002 ± 0.014	-0.001 ± 0.027	-0.046 ± 0.0057	-0.118 ± 0.024	-0.0115 ± 0.012	-0.0195 ± 0.0092	-0.0195 ± 0.016
BE3C:CXCL9/MIG	-0.002 ± 0.0085	0.0035 ± 0.016	0.0015 ± 0.0078	-0.0025 ± 0.016	-0.007 ± 0.0014	-0.0095 ± 0.00071	0.0085 ± 0.0035	-0.002 ± 0.0071	-0.0035 ± 0.018	0.001 ± 0.0028	0.012 ± 0.0071	0.014 ± 0.017	-0.0095 ± 0.011	0.0035 ± 0.022	0.0005 ± 0.0021	-0.006 ± 0.0028	-0.0285 ± 0.0035	0.0015 ± 0.0064	-0.0025 ± 0.0035	0.0035 ± 0.005
3C:CD87/uPAR	-0.0055 ± 0.012	-0.0075 ± 0.0064	0.004	-0.028 ± 0.047	-0.022 ± 0.072	0.0015 ± 0.077	-0.0125 ± 0.032	0.004 ± 0.0071	0.0285 ± 0.0035	-0.001 ± 0.04	-0.009 ± 0.041	-0.023 ± 0.033	-0.009 ± 0.023	-0.017 ± 0.025	-0.006 ± 0.0057	-0.047 ± 0.027	-0.124 ± 0.046	-0.0025 ± 0.015	0.019 ± 0.018	0.0015 ± 0.0078
